Experimental data taken from patent US20260176289A1, “SMALL MOLECULE INHIBITORS OF KRAS PROTEINS” (Merck Sharp & Dohme LLC, priority 2022, published 2026).
Like-named read-outs stand apart in the source and are kept apart here.

Tests used:
KRAS-WT = KRAS-WT (Homo sapiens, UniProt P01116); assay: SOS-catalyzed nucleotide exchange assay (Procedure A, TR-FRET), KRAS-WT; assay type: biochemical; conditions: nucleotide exchange, read-out: KRAS WT GNE IC50
In short: (§1)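 Biotinylated RAS (KRAS-G12C carries C51S/C80L/C118S; others WT background) preloaded with Bodipy-GDP plus Tb-streptavidin, preincubated with compound 60 min at RT, then human SOS and 3 mM GTP added. Final RAS/SOS: G12C 3 nM/40 nM, 60 min; WT 1 nM/40 nM, 60 min; G12V 1.25 nM/160 nM, 90 min; NRAS 1.25 nM/40 nM, 60 min. TR-FRET 520/495 ratio normalized to DMSO and saturating inhibitor; 10-point curves fit four-parameter logistic.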

[1] = biological target: KRAS-G12C (C51S/C80L/C118S) (Homo sapiens, UniProt P01116, C118S/C51S/C80L/G12C); assay: SOS-catalyzed nucleotide exchange assay (Procedure A, TR-FRET), KRAS-G12C; assay type: biochemical; conditions: nucleotide exchange, Procedure A; read-out: KRAS G12C GNE IC50
Chain of KRAS-G12C (C51S/C80L/C118S) (P01116 with tags, fused parts or gaps isoform P01116-2 G12C/C51S/C80L/C118S): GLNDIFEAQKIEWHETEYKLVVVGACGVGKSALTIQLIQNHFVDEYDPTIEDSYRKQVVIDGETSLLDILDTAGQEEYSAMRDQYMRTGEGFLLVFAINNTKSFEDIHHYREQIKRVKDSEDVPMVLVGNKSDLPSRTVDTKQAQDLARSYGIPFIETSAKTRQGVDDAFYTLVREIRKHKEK
In short: as §1

KRAS-G12D = KRAS-G12D (Homo sapiens, UniProt P01116, G12D); assay: SOS-catalyzed nucleotide exchange assay (Procedure A, TR-FRET), KRAS-G12D; assay type: biochemical; conditions: nucleotide exchange, read-out: KRAS G12D GNE IC50
Chain of KRAS-G12D (P01116 with tags, fused parts or gaps isoform P01116-2 G12D): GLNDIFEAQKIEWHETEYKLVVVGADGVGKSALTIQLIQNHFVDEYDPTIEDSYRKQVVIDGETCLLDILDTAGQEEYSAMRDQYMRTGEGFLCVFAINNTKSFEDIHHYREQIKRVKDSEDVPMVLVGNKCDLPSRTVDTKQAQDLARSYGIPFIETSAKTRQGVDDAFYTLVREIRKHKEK
In short: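 Signal ratio (520/495 nm, excitation 340 nm) reports Bodipy-GDP retention on biotinylated RAS after SOS-catalyzed exchange with 3 mM GTP. SOS was 40 nM, except 160 nM for G12V. Room-temperature exchange lasted 60 min (90 min for G12V), following a 60 min compound preincubation.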

KRAS-G12V = KRAS-G12V (Homo sapiens, UniProt P01116, G12V); assay: SOS-catalyzed nucleotide exchange assay (Procedure A, TR-FRET), KRAS-G12V; assay type: biochemical; conditions: nucleotide exchange, read-out: KRAS G12V GNE IC50
Chain of KRAS-G12V (P01116 with tags, fused parts or gaps isoform P01116-2 G12V): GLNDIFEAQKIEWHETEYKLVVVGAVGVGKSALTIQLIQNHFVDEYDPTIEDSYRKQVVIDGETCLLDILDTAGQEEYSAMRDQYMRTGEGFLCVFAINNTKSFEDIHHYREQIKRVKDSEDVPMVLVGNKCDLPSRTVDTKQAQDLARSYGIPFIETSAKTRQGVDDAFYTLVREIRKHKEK
In short: as §1

KRAS-G13D = KRAS-G13D (Homo sapiens, UniProt P01116, G13D); assay: SOS-catalyzed nucleotide exchange assay (Procedure A, TR-FRET), KRAS-G13D; assay type: biochemical; conditions: nucleotide exchange, Procedure A; read-out: KRAS G13D GNE IC50
Chain of KRAS-G13D (P01116 with tags, fused parts or gaps isoform P01116-2 G13D): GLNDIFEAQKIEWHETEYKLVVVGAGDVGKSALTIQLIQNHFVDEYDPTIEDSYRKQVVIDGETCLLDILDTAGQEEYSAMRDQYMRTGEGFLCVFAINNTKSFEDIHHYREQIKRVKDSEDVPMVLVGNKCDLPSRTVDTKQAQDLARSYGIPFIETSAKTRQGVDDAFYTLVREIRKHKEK

HRAS = HRAS (Homo sapiens, UniProt P01112); assay: SOS-catalyzed nucleotide exchange assay (Procedure A, TR-FRET), HRAS; assay type: biochemical; conditions: read-out: HRAS GNE IC50
Chain of HRAS (P01112 with tags, fused parts or gaps): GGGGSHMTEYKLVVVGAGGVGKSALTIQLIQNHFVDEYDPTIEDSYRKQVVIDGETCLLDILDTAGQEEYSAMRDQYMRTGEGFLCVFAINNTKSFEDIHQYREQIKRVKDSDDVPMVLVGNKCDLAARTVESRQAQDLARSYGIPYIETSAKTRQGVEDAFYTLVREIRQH
Text: Procedure for SOS-Catalyzed Nucleotide Exchange Assay for KRAS-WT, G12C/D/V, G13D, HRAS, and NRAS (Procedure A)
Recombinant KRAS-G12C protein used in this assay has an additional triple mutation (C51S/C80L/C118S). Whereas KRAS-WT, G12D/V, G13D, HRAS and NRAS are in context of their WT protein sequence background. Specifically, the SOS-catalyzed nucleotide exchange assay utilizes a preformed TR-FRET complex containing a specific biotinylated RAS protein (KRAS-WT, G12C/V/D, G13D, HRAS, NRAS; described above) with Bodipy-GDP, and Terbium-streptavidin. Compounds are preincubated with this complex for 60 minutes. Subsequently, recombinant human SOS protein and unlabeled GTP are added to initiate the exchange reaction. Small molecule inhibitors stabilize the Bodipy-GDP complex whereas the untreated protein rapidly exchanges Bodipy-GDP for unlabeled GTP resulting in reduced TR-FRET signal.
To assemble the preformed TR-FRET complexes, each biotinylated RAS protein is diluted to 2 μM in an EDTA Buffer (20 mM HEPES pH 7.5, 50 mM sodium chloride, 10 mM EDTA, and 0.01% Tween) and incubated at room temperature for one hour. This mixture is then further diluted to 90 nM in an Assay Buffer (20 mM HEPES pH 7.5, 150 mM sodium chloride, 10 mM magnesium chloride, and 0.005% Tween) containing 15 nM of Terbium-Streptavidin (Invitrogen, catalog #PV3577) and 900 nM of Bodipy-GDP (Invitrogen, catalog #G22360) and incubated at room temperature for six hours. It should be noted that this preformed TR-FRET complex for each of the RAS protein were made ahead of time, aliquoted and stored at −80° C. until the day of the experiment.
Each test compound (10 mM stock in DMSO) is diluted in DMSO to make a final-10-point, 3-fold dilution and is acoustically dispensed into a 384-well assay plate (Corning, catalog #3820) using an Echo 550 (Labcyte). Each well of the assay plate receives 3 μL of a specific 3×RAS preformed TR-FRET complex and 3 μL of Assay Buffer and is incubated at room temperature for 60 minutes (preincubation time). Each well then receives 3 μL of 3×recombinant human SOS protein and GTP (Sigma, G8877) in Assay Buffer and is incubated at room temperature for 30 minutes (G13D), 60 minutes (KRAS WT/G12C/D, H/NRAS) or 90 minutes for G12V. The final reaction in each well of 9 μL consists of 3 mM GTP, specific Ras and SOS proteins in the following concentrations: KRAS-G12C/SOS=3 nM/40 nM, KRAS-WT and G12D/SOS=1 nM/40 nM, KRAS-G12V/SOS=1.25 nM/160 nM. KRAS-G13D/SOS=1.25 nM/0 nM, HRAS and NRAS=1.25 nM/40 nM.
The time-resolved fluorescence resonance energy transfer (TR-FRET) signal is measured on an Envision (PerkinElmer) plate reader: Excitation filter=340 nm; emission 1=495 nm; emission2=520 nm; dichroic mirror=D400/D505; delay time=[…]. The signal of each well is determined as the ratio of the emission at 520 nm to that at 495 nm. Percent effect of each well is determined after normalization to control wells containing DMSO (no effect) or a saturating concentration of inhibitor (max effect). The apparent effect as a function of compound concentration is fit to a four-parameter logistic equation.

MKN-1 cells = assay: Cellular phospho-ERK assay, MKN-1 cells (amplified wild-type KRAS); assay type: cell-based; conditions: Homo sapiens, read-out: MKN1 pERK IC50
In short: (§2)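 10k–15k cells/well, o/n attach; cpd 2 h, 37 °C, 10-pt 1:3 from 30 μM final; lyse with protease/phosphatase inhibitors 30 min RT; multiplex SureFire p-ERK + total ERK; IC50 via 4PL on ratio.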

AsPC-1 cells = assay: Cellular phospho-ERK assay, AsPC-1 cells (homozygous KRAS-G12D); assay type: cell-based; conditions: Homo sapiens, ASPC1, 2 h, read-out: AsPC1 pERK IC50
In short: as §2

SW620 cells = assay: Cellular phospho-ERK assay, SW620 cells (homozygous KRAS-G12V); assay type: cell-based; conditions: Homo sapiens, read-out: SW620 pERK IC50
In short: as §2

[2] = amplified wild-type KRAS, 2 hours
[3] = SW-620, 2 hours compound incubation

Chain of KRAS-WT (P01116 with tags, fused parts or gaps isoform P01116-2): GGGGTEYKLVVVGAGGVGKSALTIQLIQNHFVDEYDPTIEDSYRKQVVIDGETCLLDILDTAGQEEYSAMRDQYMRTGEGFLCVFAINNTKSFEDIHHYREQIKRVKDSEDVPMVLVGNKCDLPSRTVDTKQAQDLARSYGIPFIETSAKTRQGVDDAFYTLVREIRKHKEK

Structure (SMILES)	IC50 (KRAS-WT)	IC50 [1]	IC50 (KRAS-G12D)	IC50 (KRAS-G12V)	IC50 (KRAS-G13D)	IC50 (HRAS)	IC50 (MKN-1 cells; [2])	IC50 (AsPC-1 cells; KRAS-G12D, 2 hours)	IC50 (SW620 cells; SW-620, KRAS-G12V, 2 hours)	IC50 (MKN-1 cells; 2 hours compound incubation)	IC50 (AsPC-1 cells; 2 hours compound incubation)	IC50 (SW620 cells; [3])
CCC1c2c(cc3[nH]ncc3c2-c2nccc3c2sc2nc(OC[C@@]45CCCN4C/C(=C\F)C5)nc(N4CCOC[C@@](C)(O)C4)c23)CC1(F)F (single isomer, unassigned) [Ex-109]	6.12 nM	34.2 nM	4.33 nM	5.48 nM	4.73 nM	8060 nM	15.5 nM	38.4 nM	18.8 nM			
C[C@@]1(O)COCCN(c2nc(OC[C@@]34CCCN3C[C@H](F)C4)nc3sc4c(-c5c(C6CC6)c(Cl)cc6[nH]ncc56)nncc4c23)C1 [Ex-280, (6S)-4-(8-(6-chloro-5-cyclopropyl-1H-indazol-4-yl)-2-(((2R,7aS)-2-fluorotetrahydro-1H-pyrrolizin-7a(5H)-yl)methoxy)pyrimi-do[5′,4′:4,5]thieno[2,3-d]pyridazin-4-yl)-6-methyl-1,4-oxazepan-6-ol]	9.47 nM	61 nM	4.55 nM	12.4 nM	4.89 nM	8660 nM	62 nM	78.2 nM	106 nM			
CCC1CCc2cc3[nH]ncc3c(-c3nccc4c3sc3nc(OC[C@@]56CCCN5C[C@H](F)C6)nc(N5CCOC[C@@](C)(O)C5)c34)c21 (stereo partly drawn) [Ex-169, (6S)-4-(8-(5-ethyl-1,5,6,7-tetrahydro-cyclopenta[f]indazol-4-yl)-2-(((2R,7aS)-2-fluorotetrahydro-1H-pyrrolizin-7a(5H)-yl)methoxy)pyrido [4′,3′:4,5]thieno[2,3-d]pyrimidin-4-yl)-6-methyl-1,4-oxaze-pan-6-ol]	7.7 nM	15.5 nM	2.22 nM	13.5 nM	7.05 nM	9790 nM				21.2 nM	30.9 nM	25.8 nM
CN1CCC[C@@]2(COc3nc(N4CCOC[C@@](C)(O)C4)c4c(n3)sc3c(-c5c(C6(F)CC6)c(Cl)cc6[nH]ncc56)nccc34)CCC[C@@H]12 [Ex-268, (6S)-4-(8-(6-chloro-5-(1-fluorocyclopropyl)-1H-indazol-4-yl)-2-(((4aS,7aR)-1-methyloctahydro-4aH-cyclopenta[b]pyridin-4a-yl)methoxy)pyri-do[4′,3′:4,5]thi-eno[2,3-d]pyrimidin-4-yl)-6-methyl-1,4-oxazepan-6-ol]	5.72 nM	87.5 nM	2.47 nM	5.79 nM	10.3 nM	4190 nM				30.7 nM	56 nM	27.6 nM
